In patent US12617752B2, “Rapidly metabolized lipid compound” (Beijing Jitai Life Sciences Ltd, priority 2023, dated 2026):

Legend:
HEK293T cells [1] = assay: In vitro delivery efficiency of luciferase mRNA nanoparticles (luciferase expression); format: cell-based, human; conditions: 24 h
Description: (§1) The delivery effect and safety of nanoparticles encapsulated with luciferase mRNA were evaluated at the cellular level in vitro. The cells used in the assay were human embryonic kidney cells 293 (HEK293T cells) cultured in DMEM (Dulbecco's Modified Eagle Medium) (purchased from Thermo Fisher) containing 10% fetal bovine serum and 5% penicillin-streptomycin double antibiotics at a indoor temperature of 37° C. and a CO2 concentration of 5%. The cells were uniformly dispersed and spread in 48-well plates, and incubated in the incubator for 24 h. Then a solution of the lipid nanoparticles encapsulated with luciferase mRNA were added. After 24 h, the cells were lysed, and the intracellular expression intensity and relative light units (RLU) of luciferase in each type of lipid nanoparticles were measured with a luciferase detection reagent (purchased from Promega). The higher the intensity of expression, the higher the delivery efficiency of the lipid material at the cellular level. […] The absorbance values were read on a multifunctional microplate reader at an absorbance band of 450 nm. The ratio of the absorbance value of the nanoparticle-treated cells to that of the negative control was used as a characterization parameter for cell viability.

HEK293T cells [2] = assay: Cytotoxicity testing with CCK-8 reagent; format: cell-based, human; conditions: CCK-8, 24 h, relative to PBS negative control
Description: as §1

[3] = Particle size and PDI of lipid nanoparticles by dynamic light scattering; format: physicochemical; conditions: lipid nanoparticles with luciferase mRNA; ionizable lipid/cholesterol/DSPC/DMG-PEG2000 50/38.5/10/1.5 mol%
Method in brief: (§2)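 LNPs of ionizable lipid/cholesterol/phospholipid/PEG-lipid (50/38.5/10/1.5 mol%, N/P 6) were formed by microfluidic mixing with mRNA in pH 4.5 acetate, then buffer-exchanged by ultrafiltration. Size and PDI were measured by DLS. Encapsulation came from RiboGreen fluorescence (485/528 nm) in TE pH 7.5, with and without 0.5% Triton at 37 °C for 30 min.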

[4] = Encapsulation efficiency of lipid nanoparticles (Quant-it RiboGreen RNA Assay); format: physicochemical; conditions: lipid nanoparticles with luciferase mRNA
Method in brief: as §2

C57BL/6 mice = assay: In vivo delivery of luciferase mRNA lipid nanoparticles in mice (bioluminescence imaging); conditions: intravenous, single dose 0.5 mg/kg luciferase mRNA
Method in brief: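 Female C57BL/6 mice, 6-8 weeks old, received luciferase mRNA lipid nanoparticles as a single intravenous dose of 0.5 mg/kg mRNA. At 6 h, D-luciferin given intraperitoneally; 10 min later, mice were imaged under isoflurane anaesthesia. Values are group mean fluorescence intensity and total photon count.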

- Particle size (nm) [3]: 96.83 nm
- Particle-size distribution (PDI) [3]: 0.04
- Encapsulation efficiency (%) [4]: 95.62%
SMILES: CCCCC/C=C\C/C=C\CCCCCCCCC(CCCCCCCC/C=C\C/C=C\CCCCC)OC(=O)CCCN(C)C [MC3, DLin-MC3-DMA, reference compound]
- Luciferase luminescence of cell lysate (HEK293T cells [1]): 2.95E+06 RLU
- Cell viability (%) (HEK293T cells [2]): 97.84%
- Total photon count in vivo at 6 hours after administration (Total Flux) (C57BL/6 mice): 8.04E+09
